Reference: a melting point compilation (Tetko et al.; mined from patent text by program, amines drawn as free bases though some values may be those of a salt)

SMILES | melting point [°C]
Cc1c(F)cc(C(=O)NC2CC2)cc1-n1cc(Br)nc(NC2(c3ccccc3OCCN(C)C(=O)OCc3ccccc3)CC2)c1=O | 116 to 120
CC(=O)N1Cc2cccc3c2c(cn3C)C1 | 125 to 126
CCCn1cnc2c1c(=O)n(CCCCCCOc1ccc(Cl)cc1)c(=O)n2C | 50 to 51
CNS(=O)(=O)c1ccc(N2CC(CO)OC2=O)cc1 (centres undefined) | 164 to 166
COc1cccnc1Br | 34
O=[N+]([O-])c1cc(C(F)(F)F)ccc1N1CCc2ccccc21 | 89 to 92
O=C(Nc1ccc(Cl)cc1)c1ccc([N+](=O)[O-])cc1 | 233 to 235
CON(C)C(=O)C1(C)CCc2c(C)c(O)c(C)c(C)c2O1 (centres undefined) | 139 to 140
Cc1ccc([N+](=O)[O-])c2c1CCC(C)O2 (centres undefined) | 83 to 85
CNc1nnc(-c2ccc3occ(-c4ccc(S(C)=O)cc4)c3c2)o1 (centres undefined) | 240 to 241
O=S(=O)(NCCCCC1Cc2ccccc2C1)c1ccc(Cl)cc1 | 77
O=C(CCCN1CCC(NC(=O)c2ccccc2)CC1)c1ccc(Cl)cc1 | 243 to 244
Cc1cc(C(=O)O)ncc1C(c1c(F)ccc(F)c1F)S(=O)(=O)CCC(F)(F)F (centres undefined) | 85 to 87
O=C(O)C1CCCCC1n1nc(-c2c(-c3ccccc3)nn3ccccc23)ccc1=O (centres undefined) | 164
NC(=O)c1n[nH]c(-c2ccc(Cl)cc2)c1-c1ccc(S(N)(=O)=O)cc1 | 108 to 110
Fc1cccc(F)c1-c1ncc(-c2ccc(Br)cc2)nn1 | 180 to 181
CC(CC1=C(c2ccc(O)cc2)CCCNC1=O)N1CCCCC1 (centres undefined) | 178 to 181
CS(=O)(=O)c1ccc(-c2sc(COc3cccc(Cl)c3)nc2-c2ccc(F)cc2)cc1 | 128 to 131
Cn1ccc2ccc(/C=C/CN3CCN(C4c5ccccc5CCc5ncccc54)CC3)cc21 (centres undefined) | 168 to 170
CC1CC(N)=NN1c1ccccn1 (centres undefined) | 154 to 157
CCCCCCCCCCCCNC(=S)NCCCC | 49 to 55
O=C(Cc1ccccn1)NC1CCC2(O)C3Cc4ccc(O)c5c4C2(CCN3CC2CC2)C1O5 (centres undefined) | 210 to 212
CC(CCCCO)Oc1c(I)cc(I)cc1I (centres undefined) | 79 to 80
CC(=O)Nc1cc(C)c(C)cc1OC(C)=O | 156 to 158

SMILES | melting point [°C]
Cn1c(-c2cc(C(C)(C)C)c(O)c(C(C)(C)C)c2)cnc1S | 288 to 289
CC(C)(C)OC(=O)N1C[C@@H](Oc2ccc(N)cc2)C[C@@H]1C(=O)Nc1cc(C(C)(C)C)c(O)c(C(C)(C)C)c1 | 104 to 106
FC(F)(F)c1cc(Br)c(C(F)(F)F)cc1Br | 64 to 65
COCOc1cc([N+](=O)[O-])c(F)cc1Cl | 78 to 80
CSC1=NC2=NC3=C(CSCC3=O)CN2N1 | 295 to 297
COc1cc(OC)c(F)c(NCc2cnc(SC)nc2NC2CC2)c1F | 48 to 50
CCCCC(CNc1nc(C)c(OC(=O)OCC)c(C)n1)c1ccccc1 (centres undefined) | 105 to 107
COc1ccc(-c2nc3nccnc3[nH]2)c(OC)c1 | 210 to 215
O=C(O)CN1C(=O)C(=C2CCCCC2)SC1=S | 196 to 201
Cn1cc(-c2cnc3[nH]c(=O)n(CC4CCOCC4)c3n2)cn1 | 224 to 226
Cn1cc(C(=O)NCc2ccc(Cl)cc2)c(=O)c2cc(Br)oc21 | 232 to 233
CCCC(=O)c1c[nH]c2c(COC(=O)c3ccccc3)cccc2c1=O | 115 to 117
COC(=O)c1ccc2c(c1)S(=O)(=O)c1ccccc1N=C2Cl | 254 to 256
O=C(CC1=C(n2nc(-c3c(-c4ccccc4)nn4ccccc34)ccc2=O)CCCC1)N1CCNCC1 | 208 to 209
CNc1nc(-c2cccc(NC(=O)c3ccc(S(C)=O)cc3)c2)c2cc(OC)c(OC)cc2n1 (centres undefined) | 246 to 248
OCC(O)COc1ccccc1OCc1ccccc1 (centres undefined) | 81 to 82.5
CC1(C)SCCN(S(=O)(=O)c2ccc(-c3ccc(Br)cc3)cc2)C1C(=O)O (centres undefined) | 178 to 180
NC(=O)c1nnc2n1-c1sc(Cl)cc1C(c1ccccc1Cl)=NC2 | 248 to 251
COC(=O)c1cc(C(=O)Nc2ccncc2)c2cc(Cc3ccc(F)cc3)cnc2c1O | 266 to 267
CONCc1cc(-n2c(=O)cc(C(F)(F)F)n(C)c2=O)ccc1Cl | 83 to 85
O=C(Oc1ccccc1)N1CCN2C(=O)OC(Cc3ccccc3)(Cc3ccccc3)C2C1 (centres undefined) | 140 to 141
CCn1nc(C2CC2)c(C(=O)O)c1Cc1ccc(-c2ccccc2-c2nnn[nH]2)cc1 | 227 to 229
O=C(OO)c1ccc([N+](=O)[O-])cc1 | 251 to 252
CS(=O)(=O)c1ccc(-c2cccn2-c2ccccc2)cc1 | 140 to 142

SMILES | melting point [°C]
Cc1c(C)c2c(c(C)c1O)CCC(C#N)(C(C)C)O2 (centres undefined) | 132
O=C1Nc2cc(Cl)ccc2C1c1ncnc2c1cnn2C1CCCC1 (centres undefined) | 288 to 291
O=C(CCC(=O)c1ccccc1)NC1CCCCC1 | 109 to 111
CN(C)C(=N[N+](=O)[O-])NCc1cnc(Cl)s1 | 155 to 160
c1cnc2ccc(Cn3nnc4ccc(-c5ccc(N6CCCCC6)nc5)nc43)cc2c1 | 133 to 135
Clc1nc2c([nH]1)CCCCC2 | 214 to 215
CON(CCCCn1c(C)nc2c(N)nc3ccccc3c21)C(N)=O | 158 to 160
CCOC(=O)c1cc(NC(=O)C(Cc2ccccc2)NC(=O)OC(C)(C)C)c[nH]1 (centres undefined) | 148 to 151
C=Cc1ccc(C=O)cc1 | 65.9
CCN(CC)Cc1cc(Nc2snc3ccccc23)ccc1O | 164 to 165
COc1ccc(NC(=O)c2ccc(F)c(F)c2)cc1NS(=O)(=O)c1cccc(N)c1 | 205 to 209
CC1=C(C(=O)N(C)C)C(c2ccccc2Cl)c2c[nH]nc2N1 (centres undefined) | 229
COCc1c(C(O)c2ccccc2)ncc2c1c1cc(OCc3ccccc3)ccc1n2S(=O)(=O)c1ccc(C)cc1 (centres undefined) | 146 to 147
O=C1c2cccc3cccc(c23)C(=O)N1CCO | 172 to 173
CC(C)(C)C(=O)OCOP(=O)(CCCCc1ccccc1)CC(=O)O (centres undefined) | 48 to 50
CC1(C)NC(=O)N(CC#CI)C1=O | 118 to 126
COc1cc2c(c(OC)c1OC)C(=O)C(CCCCCCC1Cc3cc(OC)c(OC)c(OC)c3C1=O)C2 (centres undefined) | 129 to 130
O=C(O)COc1ccc(C(=NO)c2cccs2)c2ccccc12 | 215
Cc1nc(-c2cccc([N+](=O)[O-])c2)cs1 | 87 to 88
COC(=O)CCCCCCC1=CCc2cc(OC)ccc21 | 30 to 31.5
Cc1cccc2c1-n1cnnc1SC2 | 234
O=C1N(Cc2cccc(Cl)n2)c2ccccc2C12COc1cc3c(cc12)OCCO3 (centres undefined) | 181 to 182
CC1(c2ccccc2)OC(C=Cc2ccccn2)=CC1=O (centres undefined) | 74.5 to 76
C/C=C/CC(=O)N[C@H]1CC[C@H](CCN2CCN(c3nccc4c3CCO4)CC2)CC1 | 176

The next lines start with the values.

melting point [°C] | SMILES
258 to 259 | COc1cc(Cc2n[nH]c3c2c(=O)n(-c2ccccc2)c2ncccc32)cc(OC)c1
208 | Cc1cn(-c2ncccn2)cc1C(=O)NC(=N)N
78 to 79 | CCOC(=O)C(C)(C)Oc1ccc(CNc2ccccn2)cc1
225 to 226 | COc1cc2c(c3oc(C(=O)O)cc(=O)c13)CCC(C)(C)O2
212 to 214 | COc1cc(C(=O)NS(=O)(=O)c2ccccc2C)ccc1Cc1cccc2ccc(C(=O)NCC(C)C)cc12
137 to 139 | CCC=CCn1c(=O)sc2c(=O)n(N)c(N)nc21
130 to 134 | Nc1ccc(C(c2ccccc2)c2ccccc2)nc1
96 to 98 | COC(=NC(=O)N(C)C)NC(=O)NC(C)(C)C
195 to 198 | COc1cccc(C2Nn3cc(-c4cc(-c5ccc(Cl)cc5Cl)no4)nc3S2)c1 (centres undefined)
54 to 56 | CCCCCCCCC(SCCCCCC)C(=O)Nc1cccc2nnccc12 (centres undefined)
177 to 179 | O=[N+]([O-])c1ccc(NS(=O)(=O)c2cc(Cl)c(Cl)cc2Cl)c(Cl)c1
151 to 153 | COC(=O)CCCc1cc2cc(Cl)ccc2n1S(=O)(=O)c1ccc2nc(C)sc2c1
138 to 140 | CCOC(=O)c1cnc(-c2ccccc2)nc1-c1ccc([N+](=O)[O-])cc1
192 to 194 | CC(=O)OCc1nc2sc(S(N)(=O)=O)cc2c(=O)n1-c1ccccc1Cl
68 | CC(C)Cc1ccc(N)cc1C#N
102 to 104 | Cc1ccc(C)n1-c1ccc(C(=O)N(C)C)cc1

melting point [°C] | SMILES
51 | O=C(Sc1ccccn1)c1c(F)c(F)c(F)c(F)c1F
130 to 131 | CCOC(=O)C(=NOCSC)c1csc(NC=O)n1
106 to 108 | Cn1nc(-c2ccccc2)c(OC(C)(C)C)c1-c1ccccc1
129 | CCN(CC)c1ccc([PH](=O)c2ccc(N(CC)CC)cc2)cc1
193 to 202 | O=C1N[C@@H](C(=O)NO)C[C@H]1c1ccc(-c2ccc(F)cc2)cc1
105 to 107 | Nc1ccc(C(O)(Cc2ccccc2)c2ccccc2)cc1 (centres undefined)
260 | O=CC1=C(Cl)Nc2cc(Cl)c(F)cc2C1
212 to 214 | CC(=O)Nc1nc(CCc2ccc(NC(=N)N)cc2)c(Cc2cccc(S(C)(=O)=O)c2)s1
218 to 220 | N#Cc1ccc(OCc2ccncc2)cc1OC(C(=O)O)c1ccccc1 (racemic)
214 to 218 | CCN1CNS(=O)(=O)c2cc(O)ccc21
130 to 132 | Cc1oc(-c2ccccc2)nc1CCOc1cccc2sccc12
106 to 107 | COC(=O)c1c(-c2ccccc2F)c2cc(OCc3ccccc3)ccc2c(=O)n1CC(C)C
65 to 66 | CC(=O)SCC1CCCCCCC(C(=O)N2C(=O)OCC2Cc2ccccc2)NC1=O (centres undefined)
215 to 216 | Cc1nccn1-c1nc(-c2ccc(Cl)cc2)c(CCC(N)=O)o1
192 to 194 | CNC(=O)c1cc2c(Oc3ccc(-n4cccn4)cc3)cncc2s1
118 to 122 | COc1ccc(-c2nc(C(=O)N3CCOCC3)sc2-c2ccc(OC)cc2)cc1
